Data set [1] in a line: Solubility in water (statement). It is filed as physicochemical. Particulars: aqueous solution; NMR samples 0.2–1.0 mM.
The test system of data set [2] is S. epidermidis ATCC 14990. Briefly: microbe, parasite or virus in culture. It is filed as cell-based, Staphylococcus epidermidis. Particulars: two-fold serial dilution in MHB, ~1 × 10^5 cells/mL, starting 200 μg/mL, values in Figure 2. Here is the method:
(§1) For antimicrobial activity determination, Gram-positive strains (Staphylococcus aureus 209P, ATCC 29213, ATCC 25923, ATCC 43300 [MRSA], S. epidermidis ATCC 14990) were used. Experiments were conducted at bacterial concentrations of (0.5–1) × 10^5 cells/mL. […] Briefly, overnight cultures in Mueller-Hinton broth (MHB, HiMedia, Mumbai, Maharashtra, India) were diluted 1:100 into fresh MHB and incubated at 37 °C for 3 h. Cultures were then adjusted to ~1 × 10^5 cells/mL (by OD600) and used as an inoculate. Peptide stocks (10 mg/mL in water) were prepared in MHB to achieve a starting concentration of 200 μg/mL and subsequently diluted twofold.

The subject of the next data set is E. coli, ΔtolC. Briefly: microbe, parasite or virus in culture. The data set is classed as cell-based. The settings on record: E. coli, ΔtolC.
For a further data set, the system named is S. aureus ATCC 25923. Briefly: microbe, parasite or virus in culture. It is filed as cell-based, Staphylococcus aureus. Particulars: two-fold serial dilution in MHB, ~1 × 10^5 cells/mL, starting 200 μg/mL, Figure 2. Here is the method:
as §1

Data set [3] has as its system S. aureus ATCC 29213 (MSSA). Briefly: microbe, parasite or virus in culture. It is filed as cell-based, Staphylococcus aureus. The settings on record: two-fold serial dilution in MHB, ~1 × 10^5 cells/mL, starting 200 μg/mL, Figure 2. As for the experimental part: as §1
For data set [4], the system named is S. aureus ATCC 43300 (MRSA). Nature of the data set: microbe, parasite or virus in culture. Particulars: S. aureus ATCC 43300 (MRSA); two-fold serial dilution in MHB, ~1 × 10^5 cells/mL, starting 200 μg/mL; Figure 2. The data set is classed as cell-based, Staphylococcus aureus. As for the experimental part: as §1
The next data set has as its system human red blood cells. Briefly: Hemolytic activity. The data set is classed as cell-based. Particulars: fresh human capillary blood, two independent experiments. Here is the method: Hemolytic activity was assessed using fresh capillary blood from a human volunteer, as described in [28]. Each peptide’s hemolytic activity was tested in two independent experiments.

A further data set deals with E. coli, ATCC 25922. Nature of the data set: microbe, parasite or virus in culture. The data set is classed as cell-based.
In a further data set the test system is E. coli, lptD. Nature of the data set: microbe, parasite or virus in culture. It is filed as cell-based. The settings on record: E. coli, lptD.
Data set [5] in a line: pKa of His12 side chain by NMR pH titration. The data set is classed as physicochemical. As for the experimental part:
NMR experiments in aqueous and micellar solutions were performed using samples containing 0.2–1.0 mM of peptide IX in 5% D2O at pH of 4.5. To model a membrane environment, 1-palmitoyl-2-hydroxy-sn-glycero-3-phospho-(1′-rac-glycerol) (LPPG, 16:0 Lyso PG, Avanti, Alabaster, AL, USA) was added stepwise to the aqueous peptide IX sample using a concentrated stock solution until a detergent-to-peptide (D:P) molar ratio of 140:1 was achieved. The NMR spectra were acquired on a Bruker Avance III 800 MHz spectrometer (Karlsruhe, Germany) equipped with a room-temperature triple-resonance (^1H, ^13C, ^15N) probe. Almost complete ^1H, ^13C, and ^15N resonance assignments for peptide IX in aqueous solution and LPPG micelles were obtained via a combination of 2D ^1H-TOCSY (τm = 60 ms), ^1H-NOESY (τm = 150 ms) and natural abundance ^13C-HSQC and ^15N-HSQC spectra measured at 5 °C and 45 °C, respectively, using the CARA 1.9.1.7 software (http://cara.nmr.ch/doku.php/Home (accessed on 12 December 2024)). […] The temperature gradients of amide protons (∆δ^1H^N/∆T) were measured from a series of 2D TOCSY spectra in water and 2D NOESY spectra in LPPG acquired in the temperature range of 15–45 °C. The pH-dependences of the ^1H^N and ^1H^δ2 His12 chemical shifts were measured in the pH range 2–9 from a series of 2D TOCSY spectra in water at 30 °C and 2D NOESY spectra in LPPG micelles at 45 °C. […]

We go through one substance from publication PMC12736563, “NMR Unveils Activity Mechanism of Linear Spider Venom Peptide Fragments Selected by Neural Networks Against Staphylococci Including MRSA” (Pharmaceutics, 2025).

Ends that are not written are not given here. Some results are limits rather than exact numbers.

With IWLSLMKFAGKHL-NH2 [IX], the “solubility in water (in words)” value in [1] was “water-soluble”. The MIC in data set [2] was 12.50 µg/mL; against E. coli, ΔtolC, 200 µg/mL; against S. aureus ATCC 25923 it was 25.00 µg/mL; in data set [3], 25.00 µg/mL; in [4] it was 25.00 µg/mL; in the data set with E. coli, ATCC 25922 it was greater than 200 µg/mL. The MIC against E. coli, lptD was found to be 50 µg/mL. For the same substance, the “Hemolysis (%)” value was 0% in the data set on human red blood cells (25 μM peptide), 14% in the data set on human red blood cells (50 μM peptide) and 100% in the data set with human red blood cells (100 μM peptide). Moreover, the “pKa of His12 side chain” value in data set [5] (LPPG micelles, D:P 140:1, 2D NOESY at 45 °C) is recorded as 7.86 ± 0.24; in data set [5] (aqueous solution, 5% D2O, 2D TOCSY at 30 °C, pH range of 3–8), 6.02 ± 0.05.
